The text below walks through data of US8580794B2 (AbbVie Inc., priority 2009, dated 2013).

Each structure is given as a SMILES string.

The target in the assay is GST-Bc1-2 (Homo sapiens, UniProt P10415). Briefly: Time Resolved-Fluorescence Resonance Energy Transfer (TR-FRET) Bcl-2 binding assay with F-Bak peptide probe. The conditions noted are these: GST-Bcl-2 1 nM, F-Bak probe 100 nM, Tb-anti-GST 1 nM; '<' = below limit of detection; read-out: TR-FRET Bcl-2 Binding Ki.
Chain of GST-Bc1-2 (P10415 whole entry): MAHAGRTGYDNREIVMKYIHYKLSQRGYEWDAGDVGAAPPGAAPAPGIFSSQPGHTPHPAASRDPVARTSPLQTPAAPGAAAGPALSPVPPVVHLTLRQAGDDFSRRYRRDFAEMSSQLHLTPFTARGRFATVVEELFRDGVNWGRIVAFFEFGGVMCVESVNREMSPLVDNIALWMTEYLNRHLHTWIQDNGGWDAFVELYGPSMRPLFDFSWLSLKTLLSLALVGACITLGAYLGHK

`CN(C)CC(=O)N1CCOC(CNc2ccc(S(=O)(=O)NC(=O)c3ccc(N4CCN(CC5=C(c6ccc(Cl)cc6)CC(C)(C)CC5)CC4)cc3Oc3cnc4[nH]ccc4c3)cc2[N+](=O)[O-])C1` (stereo not drawn) [Example 215, 4-(4-{[2-(4-chlorophenyl)-4,4-dimethylcyclohex-1-en-1-yl]methyl}piperazin-1-yl)-N-{[4-({[4-(N,N-dimethylglycyl)morpholin-2-yl]methyl}amino)-3-nitrophenyl]sulfonyl}-2-(1H-pyrrolo[2,3-b]pyridin-5-yloxy)benzamide]: the Ki was less than 0.01 nM. On to `CC1(C)CCC(CN2CCN(c3ccc(C(=O)NS(=O)(=O)c4ccc(NCC5CN(CC(=O)O)CCO5)c([N+](=O)[O-])c4)c(Oc4cnc5[nH]ccc5c4)c3)CC2)=C(c2ccc(Cl)cc2)C1` (stereo not drawn) [Example 216, (2-{[(4-{[4-(4-{[2-(4-chlorophenyl)-4,4-dimethylcyclohex-1-en-1-yl]methyl}piperazin-1-yl)-2-(1H-pyrrolo[2,3-b]pyridin-5-yloxy)benzoyl]sulfamoyl}-2-nitrophenyl)amino]methyl}morpholin-4-yl)acetic acid], for which the Ki is less than 0.01 nM. Turning to `CC1(C)CCC(CN2CCN(c3ccc(C(=O)NS(=O)(=O)c4ccc(NCC5CN(C6COC6)CCO5)c([N+](=O)[O-])c4)c(Oc4cnc5[nH]ccc5c4)c3)CC2)=C(c2ccc(Cl)cc2)C1` (stereo not drawn) [Example 217, 4-(4-{[2-(4-chlorophenyl)-4,4-dimethylcyclohex-1-en-1-yl]methyl}piperazin-1-yl)-N-{[3-nitro-4-({[4-(oxetan-3-yl)morpholin-2-yl]methyl}amino)phenyl]sulfonyl}-2-(1H-pyrrolo[2,3-b]pyridin-5-yloxy)benzamide], the Ki was less than 0.01 nM. Take `CC1(C)CCC(CN2CCN(c3ccc(C(=O)NS(=O)(=O)c4ccc(NCC5CN(C6CC6)CCO5)c([N+](=O)[O-])c4)c(Oc4cnc5[nH]ccc5c4)c3)CC2)=C(c2ccc(Cl)cc2)C1` (stereo not drawn) [Example 218, 4-(4-{[2-(4-chlorophenyl)-4,4-dimethylcyclohex-1-en-1-yl]methyl}piperazin-1-yl)-N-[(4-{[(4-cyclopropylmorpholin-2-yl)methyl]amino}-3-nitrophenyl)sulfonyl]-2-(1H-pyrrolo[2,3-b]pyridin-5-yloxy)benzamide]: the Ki was 0.013 nM. For the compound `CC1(C)CCC(CN2CCN(c3ccc(C(=O)NS(=O)(=O)c4cnc(OCC5CCOCC5)c(S(C)(=O)=O)c4)c(Oc4cnc5[nH]ccc5c4)c3)CC2)=C(c2ccc(Cl)cc2)C1` [Example 219, 4-(4-{[2-(4-chlorophenyl)-4,4-dimethylcyclohex-1-en-1-yl]methyl}piperazin-1-yl)-N-{[5-(methylsulfonyl)-6-(tetrahydro-2H-pyran-4-ylmethoxy)pyridin-3-yl]sulfonyl}-2-(1H-pyrrolo[2,3-b]pyridin-5-yloxy)benzamide], the Ki was determined as 1.19 nM.

For `CC1(C)CCC(CN2CCN(c3ccc(C(=O)NS(=O)(=O)c4ccc(OCC5(F)CCOCC5)c(S(=O)(=O)C(F)(F)F)c4)c(Oc4cnc5[nH]ccc5c4)c3)CC2)=C(c2ccc(Cl)cc2)C1` [Example 220, 4-(4-{[2-(4-chlorophenyl)-4,4-dimethylcyclohex-1-en-1-yl]methyl}piperazin-1-yl)-N-({4-[(4-fluorotetrahydro-2H-pyran-4-yl)methoxy]-3-[(trifluoromethyl)sulfonyl]phenyl}sulfonyl)-2-(1H-pyrrolo[2,3-b]pyridin-5-yloxy)benzamide], the Ki is 0.988 nM. For the compound `CC1(C)CCC(CN2CCN(c3ccc(C(=O)NS(=O)(=O)c4ccc(OCC5(C)CCOCC5)c([N+](=O)[O-])c4)c(Oc4cnc5[nH]ccc5c4)c3)CC2)=C(c2ccc(Cl)cc2)C1` [Example 221, 4-(4-{[2-(4-chlorophenyl)-4,4-dimethylcyclohex-1-en-1-yl]methyl}piperazin-1-yl)-N-({4-[(4-methyltetrahydro-2H-pyran-4-yl)methoxy]-3-nitrophenyl}sulfonyl)-2-(1H-pyrrolo[2,3-b]pyridin-5-yloxy)benzamide], the Ki stood at 0.049 nM. With `CCOC(=O)N1CCN(c2ccc(S(=O)(=O)NC(=O)c3ccc(N4CCN(CC5=C(c6ccc(Cl)cc6)CC(C)(C)CC5)CC4)cc3Oc3cnc4[nH]ccc4c3)cc2[N+](=O)[O-])CC1` [Example 222, ethyl 4-(4-{[4-(4-{[2-(4-chlorophenyl)-4,4-dimethylcyclohex-1-en-1-yl]methyl}piperazin-1-yl)-2-(1H-pyrrolo[2,3-b]pyridin-5-yloxy)benzoyl]sulfamoyl}-2-nitrophenyl)piperazine-1-carboxylate], the Ki was found to be 0.938 nM. Consider `CC1(C)CCC(CN2CCN(c3ccc(C(=O)NS(=O)(=O)c4ccc(N5CCC(N6CCOCC6)CC5)c([N+](=O)[O-])c4)c(Oc4cnc5[nH]ccc5c4)c3)CC2)=C(c2ccc(Cl)cc2)C1` [Example 223, 4-(4-{[2-(4-chlorophenyl)-4,4-dimethylcyclohex-1-en-1-yl]methyl}piperazin-1-yl)-N-({4-[4-(morpholin-4-yl)piperidin-1-yl]-3-nitrophenyl}sulfonyl)-2-(1H-pyrrolo[2,3-b]pyridin-5-yloxy)benzamide], for which the Ki came out at 0.053 nM.

Turning to `CC1(C)CCC(CN2CCN(c3ccc(C(=O)NS(=O)(=O)c4ccc(N[C@@H]5CCN(C(CF)CF)C5)c(S(=O)(=O)C(F)(F)F)c4)c(Oc4cnc5[nH]ccc5c4)c3)CC2)=C(c2ccc(Cl)cc2)C1` [Example 225, 4-(4-{[2-(4-chlorophenyl)-4,4-dimethylcyclohex-1-en-1-yl]methyl}piperazin-1-yl)-N-[(4-{[(3R)-1-(1,3-difluoropropan-2-yl)pyrrolidin-3-yl]amino}-3-[(trifluoromethyl)sulfonyl]phenyl)sulfonyl]-2-(1H-pyrrolo[2,3-b]pyridin-5-yloxy)benzamide], the Ki came out at 0.196 nM. With `CC(C)N1CCC(Nc2ccc(S(=O)(=O)NC(=O)c3ccc(N4CCN(CC5=C(c6ccc(Cl)cc6)CC(C)(C)CC5)CC4)cc3Oc3cnc4[nH]ccc4c3)cc2[N+](=O)[O-])CC1` [Example 226, 4-(4-{[2-(4-chlorophenyl)-4,4-dimethylcyclohex-1-en-1-yl]methyl}piperazin-1-yl)-N-({4-[(1-isopropylpiperidin-4-yl)amino]-3-nitrophenyl}sulfonyl)-2-(1H-pyrrolo[2,3-b]pyridin-5-yloxy)benzamide], the Ki came out at 0.139 nM. As to `CC1(C)CCC(CN2CCN(c3ccc(C(=O)NS(=O)(=O)c4ccc(NC5CCN(C(C)(C)C)CC5)c([N+](=O)[O-])c4)c(Oc4cnc5[nH]ccc5c4)c3)CC2)=C(c2ccc(Cl)cc2)C1` [Example 227, N-({4-[(1-tert-butylpiperidin-4-yl)amino]-3-nitrophenyl}sulfonyl)-4-(4-{[2-(4-chlorophenyl)-4,4-dimethylcyclohex-1-en-1-yl]methyl}piperazin-1-yl)-2-(1H-pyrrolo[2,3-b]pyridin-5-yloxy)benzamide], the Ki was less than 0.01 nM. In the case of `COCCN1CCCC(CNc2ccc(S(=O)(=O)NC(=O)c3ccc(N4CCN(CC5=C(c6ccc(Cl)cc6)CC(C)(C)CC5)CC4)cc3Oc3cnc4[nH]ccc4c3)cc2[N+](=O)[O-])C1` (stereo not drawn) [Example 228, 4-(4-{[2-(4-chlorophenyl)-4,4-dimethylcyclohex-1-en-1-yl]methyl}piperazin-1-yl)-N-{[4-({[1-(2-methoxyethyl)piperidin-3-yl]methyl}amino)-3-nitrophenyl]sulfonyl}-2-(1H-pyrrolo[2,3-b]pyridin-5-yloxy)benzamide], the Ki was found to be 26.8 nM.

As for `CC1(C)CCC(CN2CCN(c3ccc(C(=O)NS(=O)(=O)c4ccc(NCC5CCCN(CC#N)C5)c([N+](=O)[O-])c4)c(Oc4cnc5[nH]ccc5c4)c3)CC2)=C(c2ccc(Cl)cc2)C1` (stereo not drawn) [Example 229, 4-(4-{[2-(4-chlorophenyl)-4,4-dimethylcyclohex-1-en-1-yl]methyl}piperazin-1-yl)-N-{[4-({[1-(cyanomethyl)piperidin-3-yl]methyl}amino)-3-nitrophenyl]sulfonyl}-2-(1H-pyrrolo[2,3-b]pyridin-5-yloxy)benzamide], the Ki turned out to be 2.11 nM. For the compound `CN1CCC(F)(COc2ccc(S(=O)(=O)NC(=O)c3ccc(N4CCN(CC5=C(c6ccc(Cl)cc6)CC(C)(C)CC5)CC4)cc3Oc3cnc4[nH]ccc4c3)cc2S(=O)(=O)C(F)(F)F)CC1` [Example 230, 4-(4-{[2-(4-chlorophenyl)-4,4-dimethylcyclohex-1-en-1-yl]methyl}piperazin-1-yl)-N-({4-[(4-fluoro-1-methylpiperidin-4-yl)methoxy]-3-[(trifluoromethyl)sulfonyl]phenyl}sulfonyl)-2-(1H-pyrrolo[2,3-b]pyridin-5-yloxy)benzamide], the Ki amounted to 0.031 nM. `CC1(C)CCC(CN2CCN(c3ccc(C(=O)NS(=O)(=O)c4ccc(NN5CCN(C(=O)OC(C)(C)C)CC5)c([N+](=O)[O-])c4)c(Oc4cnc5[nH]ccc5c4)c3)CC2)=C(c2ccc(Cl)cc2)C1` [Example 232, tert-butyl 4-[(4-{[4-(4-{[2-(4-chlorophenyl)-4,4-dimethylcyclohex-1-en-1-yl]methyl}piperazin-1-yl)-2-(1H-pyrrolo[2,3-b]pyridin-5-yloxy)benzoyl]sulfamoyl}-2-nitrophenyl)amino]piperazine-1-carboxylate]: the Ki came out at 1.63 nM.

Consider `CC1(C)CCC(CN2CCN(c3ccc(C(=O)NS(=O)(=O)c4ccc(NCC5CCOCC5)c(S(F)(F)(F)(F)F)c4)c(Oc4cnc5[nH]ccc5c4)c3)CC2)=C(c2ccc(Cl)cc2)C1` [Example 233, 4-(4-{[2-(4-chlorophenyl)-4,4-dimethylcyclohex-1-en-1-yl]methyl}piperazin-1-yl)-N-({3-(pentafluoro-lambda˜6˜-sulfanyl)-4-[(tetrahydro-2H-pyran-4-ylmethyl)amino]phenyl}sulfonyl)-2-(1H-pyrrolo[2,3-b]pyridin-5-yloxy)benzamide], for which the Ki was found to be 1.65 nM. For the compound `COC1(COc2ccc(S(=O)(=O)NC(=O)c3ccc(N4CCN(CC5=C(c6ccc(Cl)cc6)CC(C)(C)CC5)CC4)cc3Oc3cnc4[nH]ccc4c3)cc2[N+](=O)[O-])CCOCC1` [Example 234, 4-(4-{[2-(4-chlorophenyl)-4,4-dimethylcyclohex-1-en-1-yl]methyl}piperazin-1-yl)-N-({4-[(4-methoxytetrahydro-2H-pyran-4-yl)methoxy]-3-nitrophenyl}sulfonyl)-2-(1H-pyrrolo[2,3-b]pyridin-5-yloxy)benzamide], the Ki came out at 0.115 nM.

The term Ki denotes a measure of affinity in units of concentration, obtained from inhibition or displacement.
